Patent US8293764B2, “Compositions and methods for disruption of BRCA2-Rad51 interaction” (The Regents of the University of California, priority 2004, dated 2012)
pIC50: −log10 of the molar value.

Columns and labels:
Format in all cases: cell-based
[1] = tested on: breast cancer cells (MDA-MB-468, MDA-MB-435, MCF-7, T47D); assay: MTT assay
Description: The inventors examined the effects of IBR2 on the growth and viability of a panel of breast cancer cell lines. Five exponentially growing breast cancer cell lines (MDA-MB-231, MCF-7, MDA-MB-468, SKBR3 and MDA-MB-435) were incubated with IBR2 at various concentrations (0, 5, 10 and 20 μM) for various periods of time (1, 2, 3, 4 and 5 days). The viable cell numbers were then counted by trypan blue exclusion assay. […] We also examined the effects of IBR2 on the growth and viability of cultured breast cancer cells (MDA-MB-468, MDA-MB-435, MCF-7, T47D) using the 3-(4,5-dimethylthiazol-2-yl)-2,5-diphenyltetrazolium bromide (MTT) assay.
Cell proliferation assay and clonogenic survival assays: To obtain cell growth curves, 1×10^4 cells were seeded in 12-well plate for 24 hours. Cells were then treated, in duplicate, with various concentrations of IBR2 in the presence of 0.4% DMSO. The viable cells were counted by trypan blue exclusion assay daily. MTT assay was performed as previously described (Alley et al., 1988).

[2] = tested on: BRCA2-/-:p53-/-, BRCA1-/-:p53-/- and p53-/- MEFs; assay: Sensitivity of isogenic MEFs to IBR2; conditions: compared with BRCA1-/-:p53-/- and p53-/- MEFs
Text: Next, the inventors examined the sensitivity to IBR2 treatment of isogenic MEFs with genotypes of BRCA2−/−:p53−/−, BRCA1−/−:p53−/− and p53−/−.

[3] = tested on: MCF-7 breast cancer cells; assay: Survival of cells under combination with chemotherapeutic agents or irradiation
Description: It is therefore likely that combination of IBR2 with other chemotherapeutic agents may have synergistic effects. To test this possibility, survival of MCF-7 breast cancer cells treated with 8 μM IBR2 plus different doses of VP-16, taxol, camptothecin, or gamma-irradiation was measured. […] Thus, it should be appreciated that a combination of IBR2 with other conventional therapeutic agents may have potential clinical applications in treating various cancers.
To perform clonogenic survival assay, 1.5×10^3 MCF-7 cells were seeded in 10-cm dishes for 24 hours. Cells were then treated, in triplicate, with 5 μM IBR2 for 12 hours and then g-irradiated. Cells were continuously exposed to 5 μM IBR2 and re-fed every 4 days with fresh medium and IBR2. After 14-16 days, cells were fixed and stained with 2% methylene blue. Colonies consisting of more than 50 cells were counted.

SMILES: O=S(=O)(Cc1ccccc1)N1C=Cc2ccccc2C1c1c[nH]c2ccccc12 (stereo not drawn) [IBR2, 2-(benzylsulfonyl)-1-(1H-indol-3-yl)-1,2-dihydroisoquinoline]
- pIC50 [1]: ~5.00
- sensitivity of BRCA2-/-:p53-/- MEFs to IBR2 [2]: most sensitive
- synergy with VP-16 on cell survival ([3]; 8 μM IBR2 plus different doses of VP-16): Significant synergistic effects
- synergy with camptothecin on cell survival ([3]; 8 μM IBR2 plus different doses of camptothecin): Significant synergistic effects
- synergy with gamma-irradiation on clonogenic survival ([3]; 8 μM IBR2 plus different doses of gamma-irradiation): Significant synergistic effects
- synergy with taxol on cell survival ([3]; 8 μM IBR2 plus different doses of taxol): Significant synergistic effects
